Legend:
TbPRMT6 [1] = target: T1, TbPRMT6 (Trypanosoma brucei, UniProt Q57U70); assay: X-ray crystal structure, […] A; conditions: co-crystallised with three-fold molar excess SAH; 100 mM citrate pH 5.5, 20% PEG3000, 293 K; SAM-binding pocket
T1 construct: gene Tb05.6E7.1000; full-length, E. coli BL21(DE3), modified pET28a, N-terminal 6xHis cut by TEV protease; 41 kDa monomer, homodimer; residues 1-24 and 228-229 disordered in crystal
T1 sequence (Q57U70 1-368): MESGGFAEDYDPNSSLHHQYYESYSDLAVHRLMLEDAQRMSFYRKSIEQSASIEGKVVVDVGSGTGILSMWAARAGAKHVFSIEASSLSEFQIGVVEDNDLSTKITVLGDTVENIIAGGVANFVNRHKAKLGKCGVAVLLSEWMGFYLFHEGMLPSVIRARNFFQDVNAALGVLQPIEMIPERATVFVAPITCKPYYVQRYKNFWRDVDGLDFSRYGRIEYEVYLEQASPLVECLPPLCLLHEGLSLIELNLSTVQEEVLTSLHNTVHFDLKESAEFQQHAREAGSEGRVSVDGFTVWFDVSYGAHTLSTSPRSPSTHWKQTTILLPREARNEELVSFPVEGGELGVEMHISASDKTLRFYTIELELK

TbPRMT6 [2] = target: T1, TbPRMT6; assay: in vitro methylation of Trx-H4tail, western blot for asymmetric dimethyl H4R3; assay type: biochemical; conditions: 40 uM SAM, 1 ug Trx-H4tail (bovine histone H4 residues) as co-substrate; 30 mM Tris pH 8.0, 100 mM NaCl, 1 mM EDTA, 5 mM DTT, 37 C, 12 h

Structure (SMILES) | X-ray crystal structure, 2.35 A (TbPRMT6 [1]) | in vitro methylation of Trx-H4tail, western blot for asymmetric dimethyl H4R3 (TbPRMT6 [2])
Nc1ncnc2c1ncn2[C@@H]1O[C@H](CSCC[C@H](N)C(=O)O)[C@@H](O)[C@H]1O [SAH, S-adenosyl-homocysteine] | Structures of apo-TbPRMT6 and in complex with SAH (SAH-TbPRMT6) were resolved and refined | 
C[S+](CC[C@H](N)C(=O)O)C[C@H]1O[C@@H](n2cnc3c(N)ncnc32)[C@H](O)[C@@H]1O (stereo partly drawn) [SAM, S-adenosyl-L-methionine] |  | our result also showed that TbPRMT6 can methylate bovine histone H4R3

— PMC3911951, “Crystal Structure of Arginine Methyltransferase 6 from Trypanosoma brucei” (PLoS ONE, 2014)
